Consider two substances from patent US20100267803A1, “Regulators Of Fat Metabolism As Anti-Cancer Targets” (The Research Foundation of State University Of New York, priority 2008, published 2010).

Type in all cases: cell-based, human
The subject of one data set is NR1D1 mRNA. Nature of the data set: qRT-PCR of NR1D1 mRNA in BT474 cells. The note with it: shRNA 48 h, qRT-PCR. On the procedure:
(§1) FIG. 2 NR1D1 and PBP are necessary for survival of ERBB2-positive cells. (a) PBP and NR1D1 mRNA levels of BT474 cells transfected with luciferase (control), PBP or NR1D1 shRNAs for 48 h, analyzed by qRT-PCRs. (Error bars are s.d from 3 experiments; ***P<0.003, **P=0.01, *P=0.02). (b) BMAL1 luciferase reporter activity of BT474 cells transfected with either empty vector (control), or NR1D1 shRNA for 48 h.
(§2) FIG. 3 PPAR. inhibition impacts NR1D1 expression and ERBB2-positive cells viability. (a) Cell counts of BT474, MDA-MB-361, MCF-7 and HMEC cells treated with vehicle, 10 and 20 μM of the PPAR. antagonist GW9662 for 72 hrs. Results represented as % of control (vehicle). (Error bars are s.d from 3 individual experiments; *P>0.2, **P<0.05, ***P<0.002). (b) BT474 cells treated with vehicle or 20 μM of GW9662 for 48 h were immuno-stained for cleaved Caspase-3. (c) Quantification of Caspase-3 signal. (Error bars are s.d from 3 individual experiments; ***P=0.002). (d) aP2 and NR1D1 mRNA levels of BT474 cells treated with vehicle (control) and 20 μM of GW9662 for 48 h, analyzed by qRT-PCRs. […]
In general terms: Real-time PCR tracks product formation cycle by cycle.

A further data set relates to BMAL1 reporter. Nature of the data set: BMAL1 luciferase reporter assay in BT474 cells. The note with it: shRNA 48 h, vs empty vector. On the procedure:
as §1
as §2, with “(Error bars are s.d from 3 individual experiments; ***P=0.002).” left out
Reporter assays. […] Cells were lysed 48 h post-transfection and firefly (reporter) and renilla luciferase activities were measured using the Dual-Luciferase Reporter Assay kit (Promega) on a BioTek Synergy HT reader. The ratio of Firefly to Renilla luciferase activity was calculated and presented as percentage of control.
For orientation: In a reporter assay the amount or activity of a reporter protein is the signal.

Another data set has as its system MDH1 mRNA. Nature of the data set: qRT-PCR of MDH1 mRNA in BT474 cells. The note with it: shRNA 48 h. On the procedure:
FIG. 5. (a) MDH1 and ME1 mRNA levels of BT474 cells treated with luciferase (control), PBP or NR1D1 shRNAs for 48 h, analyzed by qRT-PCRs. (Error bars are s.d from 3 experiments; **P<0.002 (b) BT474 and MCF-7 cells were transfected with luciferase (control) MDH1 and ME1 shRNAs (Error bars are s.d from 3 individual experiments; ***P=0.0003). (c) BT474 cells) assayed for cleaved Caspase-3 signal by immunofluorescence 48 h after transfection; cell nuclei were stained with Hoechst 33243. (d) Quantification of cleaved Caspase-3 signal from cells in (c). (Error bars are s.d from 3 individual experiments; ***P<0.005). (e) Enzymes involved in fatty acid synthesis and storage that are regulated by NR1D1 and PBP and their proposed contribution to energy production necessary for survival of ERBB2-positive breast cancer cells.
(§3) Cell viability—apoptosis assays. […] At least 30 fields were imaged per single experiment. […] Immunoblotting. […] PCR reaction was run using standard conditions.

For the next data set, the system named is NR1D1. Nature of the data set: Immunoblot of NR1D1 protein after shRNA. The settings on record: after shRNA transfection.
Description: as §3
For orientation: In western blotting, separated proteins are transferred to a membrane and probed.

A further data set concerns PBP mRNA. Nature of the data set: qRT-PCR of PBP mRNA in BT474 cells. The note with it: shRNA 48 h. As to the method:
as §1, §3

Turning to “NR1D1 shRNA: shRNA, mature sequence GGCATGGTGTTACTGTGTA (shRNA)”, the “decrease in mRNA levels of target (NR1D1)” value in the data set with NR1D1 mRNA is listed as over 60%. Besides, the “up-regulation of BMAL1 reporter” value with BMAL1 reporter was determined as 2.5 fold. In addition, the MDH1 message levels result in the data set on MDH1 mRNA was “significantly decreased”. Moreover, the NR1D1 protein levels result with NR1D1 is “decreased protein levels”.
In the case of “PBP shRNA: shRNA, mature sequence CCGAGTTCCTCTTATCCTA (shRNA)”, in the data set with PBP mRNA, the “decrease in mRNA levels of target (PBP)” value is recorded as over 60%.
